# Experimental data taken from ChEMBL document CHEMBL1201862, “PubChem BioAssay data set” (2004).
#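 All cell lines were grown in 96-well plates and treated with compound for 48 hours. GI50 is the concentration that inhibits growth by half.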 Calls of active or inactive are those of the source. No stated cut-off is given here; in the data, active = GI50 up to about 1.1 µM and inactive = higher.
# Columns and labels:
# Assay in all cases: growth of human tumour cells (NCI), 48 h
# [1] = system: BT-549
# [2] = system: CCRF-CEM
# [3] = system: HCT-116
# [4] = system: HCT-15
# [5] = system: HL-60
# [6] = system: HT-29
# [7] = system: MDA-MB-435
# [8] = system: Malme-3M
# [9] = system: NCI-H23
# [10] = system: NCI/ADR-RES
# [11] = system: OVCAR-3
# [12] = system: PC-3
# [13] = system: SF-539
# [14] = system: SK-OV-3
# [15] = system: SNB-75
# [16] = system: SR
# [17] = system: T47D
# [18] = system: UO-31
# [19] = system: KM12
# [20] = system: MDA-N
SMILES,GI50 [1],GI50 [2],GI50 [3],GI50 [4],GI50 [5],GI50 [6],GI50 [7],GI50 [8],GI50 [9],GI50 [10],GI50 [11],GI50 [12],GI50 [13],GI50 [14],GI50 [15],GI50 [16],GI50 [17],GI50 [18],GI50 [19],GI50 [20]
COc1ccc(Cc2coc3ccccc3c2=O)cc1OC,38 µM (inactive),> 100 µM (inactive),45.7 µM (inactive),31.8 µM,86.5 µM (inactive),> 100 µM (inactive),79.4 µM (inactive),> 100 µM (inactive),28.3 µM (inactive),36.1 µM (inactive),78 µM (inactive),93.5 µM (inactive),42.8 µM (inactive),> 100 µM (inactive),> 100 µM (inactive),61.1 µM (inactive),33.2 µM (inactive),38.5 µM (inactive),,
C/C=C(C)/C=C/CC(C)CCC=C(C)C (centres undefined),> 100 µM (inactive),> 100 µM (inactive),> 100 µM (inactive),> 100 µM,44.5 µM (inactive),> 100 µM (inactive),> 100 µM (inactive),,,> 100 µM (inactive),> 100 µM (inactive),,> 100 µM (inactive),> 100 µM (inactive),> 100 µM (inactive),> 100 µM (inactive),,> 100 µM (inactive),> 100 µM (inactive),> 100 µM (inactive)
c1ccc2sc(C3(N4CCCC4)CCCCCC3)cc2c1,21.4 µM (inactive),10.7 µM (inactive),12.5 µM (inactive),17.5 µM,17.4 µM (inactive),4.1 µM (inactive),16.4 µM (inactive),,18 µM (inactive),19.7 µM (inactive),14.3 µM (inactive),,19.6 µM (inactive),16.8 µM (inactive),13.5 µM (inactive),18.8 µM (inactive),,12.8 µM (inactive),12.9 µM (inactive),15.7 µM (inactive)
C=CCn1c(=O)c(-c2ccccc2)c(O)c2ccccc21,> 100 µM (inactive),> 100 µM (inactive),> 100 µM (inactive),> 100 µM,> 100 µM (inactive),> 100 µM (inactive),> 100 µM (inactive),> 100 µM (inactive),> 100 µM (inactive),> 100 µM (inactive),> 100 µM (inactive),> 100 µM (inactive),> 100 µM (inactive),,94 µM (inactive),> 100 µM (inactive),,> 100 µM (inactive),> 100 µM (inactive),> 100 µM (inactive)
O=C(NCC1Nc2ccncc2S(=O)(=O)N1)c1ccc(Br)cc1 (centres undefined),69.7 µM (inactive),,43.9 µM (inactive),42.5 µM,30.1 µM (inactive),> 100 µM (inactive),19.6 µM (inactive),28.8 µM (inactive),66.1 µM (inactive),59.8 µM (inactive),30.8 µM (inactive),17.7 µM (inactive),,> 100 µM (inactive),73.6 µM (inactive),,> 100 µM (inactive),25.1 µM (inactive),40.6 µM (inactive),23.7 µM (inactive)
COc1cc(OCCN(C)C)c2[nH]c(C(=O)N3CC(CCl)c4c3cc(N)c3ccccc43)cc2c1 (centres undefined),0.0268 µM (active),< 0.01 µM (active),< 0.01 µM (active),< 0.01 µM,,< 0.01 µM (active),< 0.01 µM (active),< 0.01 µM (active),< 0.01 µM (active),< 0.01 µM (active),< 0.01 µM (active),< 0.01 µM (active),< 0.01 µM (active),0.0148 µM (active),< 0.01 µM (active),,0.0139 µM (active),< 0.01 µM (active),< 0.01 µM (active),< 0.01 µM (active)
CC1(C)CC(=O)C2=C(C1)N(c1ccccc1)C1(O)C=CC(O)=C3C(=O)c4ccccc4C(=O)C321 (centres undefined),26.9 µM (inactive),4.06 µM (inactive),61.4 µM (inactive),30.8 µM,37.2 µM (inactive),21.2 µM (inactive),20.7 µM (inactive),26.7 µM (inactive),24.6 µM (inactive),9.84 µM (inactive),37.8 µM (inactive),26.2 µM (inactive),27.4 µM (inactive),88.9 µM (inactive),22.5 µM (inactive),8.57 µM (inactive),45.3 µM (inactive),19.1 µM (inactive),23 µM (inactive),
Cc1sc(Nc2ccc(Nc3nc(-c4ccccc4)c(C)s3)cc2)nc1-c1ccccc1,> 100 µM (inactive),2.29 µM (inactive),62.2 µM (inactive),44.8 µM,,60 µM (inactive),> 100 µM (inactive),> 100 µM (inactive),28.7 µM (inactive),41.4 µM (inactive),> 100 µM (inactive),16.6 µM (inactive),26.3 µM (inactive),> 100 µM (inactive),48.4 µM (inactive),20.9 µM (inactive),8.95 µM (inactive),89.7 µM (inactive),> 100 µM (inactive),
COC(=O)[C@H]1CO[C@H]2C/C(C)=C/CC/C(C)=C/CC[C@@]3(C)O[C@@H]3C[C@H]21,7.8 µM (inactive),10 µM (inactive),9.91 µM (inactive),9.12 µM,10.7 µM (inactive),17.9 µM (inactive),11.5 µM (inactive),,17.5 µM (inactive),10.7 µM (inactive),10.1 µM (inactive),15.3 µM (inactive),15.6 µM (inactive),29.9 µM (inactive),14.4 µM (inactive),10.6 µM (inactive),20.5 µM (inactive),13.4 µM (inactive),9.57 µM (inactive),
CC1(C)S[C@@H]2[C@H](NC(=O)[C@H](N)c3ccccc3)C(=O)N2[C@H]1C(=O)O [AMPICILLIN],> 100 µM (inactive),> 100 µM (inactive),> 100 µM (inactive),> 100 µM,> 100 µM (inactive),> 100 µM (inactive),> 100 µM (inactive),,> 100 µM (inactive),> 100 µM (inactive),> 100 µM (inactive),> 100 µM (inactive),> 100 µM (inactive),,> 100 µM (inactive),> 100 µM (inactive),> 100 µM (inactive),> 100 µM (inactive),> 100 µM (inactive),
N=C(Cc1ccccc1)NCC(=O)O,> 100 µM (inactive),> 100 µM (inactive),> 100 µM (inactive),> 100 µM,> 100 µM (inactive),> 100 µM (inactive),> 100 µM (inactive),> 100 µM (inactive),> 100 µM (inactive),> 100 µM (inactive),> 100 µM (inactive),> 100 µM (inactive),,> 100 µM (inactive),> 100 µM (inactive),,> 100 µM (inactive),> 100 µM (inactive),> 100 µM (inactive),> 100 µM (inactive)
CN1C(=O)C(=CNc2ccc(Cl)cc2Cl)C(=O)N(C)C1=O,> 100 µM (inactive),13.9 µM (inactive),> 100 µM (inactive),> 100 µM,,> 100 µM (inactive),> 100 µM (inactive),> 100 µM (inactive),> 100 µM (inactive),> 100 µM (inactive),> 100 µM (inactive),> 100 µM (inactive),> 100 µM (inactive),> 100 µM (inactive),> 100 µM (inactive),> 100 µM (inactive),> 100 µM (inactive),> 100 µM (inactive),> 100 µM (inactive),
CC1(C)Oc2ccc3c(=O)c(-c4ccccc4)c(-c4ccccc4)oc3c2C1C(=O)O (centres undefined),> 100 µM (inactive),> 100 µM (inactive),> 100 µM (inactive),33.3 µM,,> 100 µM (inactive),> 100 µM (inactive),> 100 µM (inactive),> 100 µM (inactive),> 100 µM (inactive),> 100 µM (inactive),> 100 µM (inactive),> 100 µM (inactive),> 100 µM (inactive),,,> 100 µM (inactive),,,> 100 µM (inactive)
CC(C)Oc1c(C2(c3ccccc3O)SCCCS2)c(=O)c1=O,42.5 µM (inactive),20.5 µM (inactive),> 100 µM (inactive),> 100 µM,54.2 µM (inactive),> 100 µM (inactive),> 100 µM (inactive),,89.3 µM (inactive),> 100 µM (inactive),79.3 µM (inactive),> 100 µM (inactive),> 100 µM (inactive),> 100 µM (inactive),36.1 µM (inactive),,38.9 µM (inactive),47.9 µM (inactive),51.5 µM (inactive),> 100 µM (inactive)
O=C(CN1CCOCC1)c1ccc2[nH]c(=O)oc2c1,> 100 µM (inactive),> 100 µM (inactive),> 100 µM (inactive),> 100 µM,> 100 µM (inactive),> 100 µM (inactive),> 100 µM (inactive),> 100 µM (inactive),> 100 µM (inactive),> 100 µM (inactive),> 100 µM (inactive),> 100 µM (inactive),> 100 µM (inactive),> 100 µM (inactive),77.4 µM (inactive),> 100 µM (inactive),,41.9 µM (inactive),> 100 µM (inactive),> 100 µM (inactive)
C[C@H](C/C=C/C(C)(C)O)[C@H]1CC[C@@]2(C)[C@@H]3CC[C@H]4C(C)(C)[C@@H](O)CC[C@@]45C[C@@]35CC[C@]12C,34.1 µM (inactive),,18.2 µM (inactive),17.1 µM,,26 µM (inactive),20.5 µM (inactive),,,5.14 µM (inactive),50.5 µM (inactive),26.3 µM (inactive),16.8 µM (inactive),32.1 µM (inactive),20.3 µM (inactive),,27 µM (inactive),23.3 µM (inactive),24.7 µM (inactive),34.1 µM (inactive)
